# From BigSolDB 2.1
smiles,measurement,setting,value
CC(C)C(=O)Nc1ccc([N+](=O)[O-])c(C(F)(F)F)c1,solubility (mole fraction),"in 1,4-dioxane, 283.15 K",0.108
same,solubility (mole fraction),"in 1,4-dioxane, 288.15 K",0.127
same,solubility (mole fraction),"in 1,4-dioxane, 293.15 K",0.151
same,solubility (mole fraction),"in 1,4-dioxane, 298.15 K",0.177
same,solubility (mole fraction),"in 1,4-dioxane, 303.15 K",0.203
same,solubility (mole fraction),"in 1,4-dioxane, 308.15 K",0.231
same,solubility (mole fraction),"in 1,4-dioxane, 313.15 K",0.262
same,solubility (mole fraction),"in 1,4-dioxane, 318.15 K",0.299
same,solubility (mole fraction),"in 1,4-dioxane, 323.15 K",0.348
same,solubility (mole fraction),"in THF, 278.15 K",0.259
same,solubility (mole fraction),"in THF, 283.15 K",0.276
same,solubility (mole fraction),"in THF, 288.15 K",0.297
same,solubility (mole fraction),"in THF, 293.15 K",0.321
same,solubility (mole fraction),"in THF, 298.15 K",0.348
same,solubility (mole fraction),"in THF, 303.15 K",0.376
same,solubility (mole fraction),"in THF, 308.15 K",0.405
same,solubility (mole fraction),"in THF, 313.15 K",0.436
same,solubility (mole fraction),"in THF, 318.15 K",0.469
same,solubility (mole fraction),"in THF, 323.15 K",0.502
same,solubility (mole fraction),"in acetone, 278.15 K",0.186
same,solubility (mole fraction),"in acetone, 283.15 K",0.201
same,solubility (mole fraction),"in acetone, 288.15 K",0.228
same,solubility (mole fraction),"in acetone, 293.15 K",0.258
same,solubility (mole fraction),"in acetone, 298.15 K",0.291
same,solubility (mole fraction),"in acetone, 303.15 K",0.327
same,solubility (mole fraction),"in acetone, 308.15 K",0.366
same,solubility (mole fraction),"in acetone, 313.15 K",0.407
same,solubility (mole fraction),"in acetone, 318.15 K",0.45
same,solubility (mole fraction),"in acetone, 323.15 K",0.49
same,solubility (mole fraction),"in acetonitrile, 278.15 K",0.0566
same,solubility (mole fraction),"in acetonitrile, 283.15 K",0.0711
same,solubility (mole fraction),"in acetonitrile, 288.15 K",0.0902
same,solubility (mole fraction),"in acetonitrile, 293.15 K",0.119
same,solubility (mole fraction),"in acetonitrile, 298.15 K",0.157
same,solubility (mole fraction),"in acetonitrile, 303.15 K",0.197
same,solubility (mole fraction),"in acetonitrile, 308.15 K",0.246
same,solubility (mole fraction),"in acetonitrile, 313.15 K",0.296
same,solubility (mole fraction),"in acetonitrile, 318.15 K",0.355
same,solubility (mole fraction),"in acetonitrile, 323.15 K",0.427
same,solubility (mole fraction),"in ethanol, 278.15 K",0.0503
same,solubility (mole fraction),"in ethanol, 283.15 K",0.0556
same,solubility (mole fraction),"in ethanol, 288.15 K",0.063
same,solubility (mole fraction),"in ethanol, 293.15 K",0.0709
same,solubility (mole fraction),"in ethanol, 298.15 K",0.0797
same,solubility (mole fraction),"in ethanol, 303.15 K",0.0908
same,solubility (mole fraction),"in ethanol, 308.15 K",0.102
same,solubility (mole fraction),"in ethanol, 313.15 K",0.117
same,solubility (mole fraction),"in ethanol, 318.15 K",0.133
same,solubility (mole fraction),"in ethanol, 323.15 K",0.154
same,solubility (mole fraction),"in ethyl acetate, 278.15 K",0.161
same,solubility (mole fraction),"in ethyl acetate, 283.15 K",0.178
same,solubility (mole fraction),"in ethyl acetate, 288.15 K",0.191
same,solubility (mole fraction),"in ethyl acetate, 293.15 K",0.206
same,solubility (mole fraction),"in ethyl acetate, 298.15 K",0.227
same,solubility (mole fraction),"in ethyl acetate, 303.15 K",0.246
same,solubility (mole fraction),"in ethyl acetate, 308.15 K",0.269
same,solubility (mole fraction),"in ethyl acetate, 313.15 K",0.29
same,solubility (mole fraction),"in ethyl acetate, 318.15 K",0.321
same,solubility (mole fraction),"in ethyl acetate, 323.15 K",0.351
same,solubility (mole fraction),"in isobutanol, 278.15 K",0.0307
same,solubility (mole fraction),"in isobutanol, 283.15 K",0.0381
same,solubility (mole fraction),"in isobutanol, 288.15 K",0.0487
same,solubility (mole fraction),"in isobutanol, 293.15 K",0.0632
same,solubility (mole fraction),"in isobutanol, 298.15 K",0.0776
same,solubility (mole fraction),"in isobutanol, 303.15 K",0.0965
same,solubility (mole fraction),"in isobutanol, 308.15 K",0.118
same,solubility (mole fraction),"in isobutanol, 313.15 K",0.141
same,solubility (mole fraction),"in isobutanol, 318.15 K",0.171
same,solubility (mole fraction),"in isobutanol, 323.15 K",0.207
same,solubility (mole fraction),"in isopropanol, 278.15 K",0.0539
same,solubility (mole fraction),"in isopropanol, 283.15 K",0.0609
same,solubility (mole fraction),"in isopropanol, 288.15 K",0.0692
same,solubility (mole fraction),"in isopropanol, 293.15 K",0.0799
same,solubility (mole fraction),"in isopropanol, 298.15 K",0.0918
same,solubility (mole fraction),"in isopropanol, 303.15 K",0.105
same,solubility (mole fraction),"in isopropanol, 308.15 K",0.121
same,solubility (mole fraction),"in isopropanol, 313.15 K",0.139
same,solubility (mole fraction),"in isopropanol, 318.15 K",0.161
same,solubility (mole fraction),"in isopropanol, 323.15 K",0.182
same,solubility (mole fraction),"in methanol, 278.15 K",0.0401
same,solubility (mole fraction),"in methanol, 283.15 K",0.047
same,solubility (mole fraction),"in methanol, 288.15 K",0.0555
same,solubility (mole fraction),"in methanol, 293.15 K",0.0641
same,solubility (mole fraction),"in methanol, 298.15 K",0.0757
same,solubility (mole fraction),"in methanol, 303.15 K",0.0878
same,solubility (mole fraction),"in methanol, 308.15 K",0.103
same,solubility (mole fraction),"in methanol, 313.15 K",0.12
same,solubility (mole fraction),"in methanol, 318.15 K",0.142
same,solubility (mole fraction),"in methanol, 323.15 K",0.166
same,solubility (mole fraction),"in methyl acetate, 278.15 K",0.141
same,solubility (mole fraction),"in methyl acetate, 283.15 K",0.157
same,solubility (mole fraction),"in methyl acetate, 288.15 K",0.179
same,solubility (mole fraction),"in methyl acetate, 293.15 K",0.208
same,solubility (mole fraction),"in methyl acetate, 298.15 K",0.24
same,solubility (mole fraction),"in methyl acetate, 303.15 K",0.275
same,solubility (mole fraction),"in methyl acetate, 308.15 K",0.312
same,solubility (mole fraction),"in methyl acetate, 313.15 K",0.35
same,solubility (mole fraction),"in methyl acetate, 318.15 K",0.396
same,solubility (mole fraction),"in methyl acetate, 323.15 K",0.447
same,solubility (mole fraction),"in n-butanol, 278.15 K",0.049
same,solubility (mole fraction),"in n-butanol, 283.15 K",0.0549
same,solubility (mole fraction),"in n-butanol, 288.15 K",0.0622
same,solubility (mole fraction),"in n-butanol, 293.15 K",0.0709
same,solubility (mole fraction),"in n-butanol, 298.15 K",0.0797
same,solubility (mole fraction),"in n-butanol, 303.15 K",0.0904
same,solubility (mole fraction),"in n-butanol, 308.15 K",0.103
same,solubility (mole fraction),"in n-butanol, 313.15 K",0.117
same,solubility (mole fraction),"in n-butanol, 318.15 K",0.135
same,solubility (mole fraction),"in n-butanol, 323.15 K",0.156
same,solubility (mole fraction),"in n-propanol, 278.15 K",0.049
same,solubility (mole fraction),"in n-propanol, 283.15 K",0.0547
same,solubility (mole fraction),"in n-propanol, 288.15 K",0.0624
same,solubility (mole fraction),"in n-propanol, 293.15 K",0.0698
same,solubility (mole fraction),"in n-propanol, 298.15 K",0.0784
same,solubility (mole fraction),"in n-propanol, 303.15 K",0.0889
same,solubility (mole fraction),"in n-propanol, 308.15 K",0.101
same,solubility (mole fraction),"in n-propanol, 313.15 K",0.115
same,solubility (mole fraction),"in n-propanol, 318.15 K",0.132
same,solubility (mole fraction),"in n-propanol, 323.15 K",0.15
